According to patent US20220408703A1, “IMAGING INDIVIDUAL HIPPOCAMPAL SEIZURES AND THE LONG-TERM IMPACT OF REPEATED SEIZURES” (The Board of Trustees of the Leland Stanford Junior …, priority 2019, published 2022):

Tested on: optogenetically induced ventral hippocampal seizures in rats
Settings: same animals awake and under dexmedetomidine sedation
Description: (A,B) Ventral hippocampal LFP recordings from the same animal and seizures induced when awake and under sedation. Red arrow indicates large amplitude spike onset, and insets i-iii) are magnified components of those seizures. Blue bar indicates time of optogenetic stimulation (40 Hz with 7.5 ms pulses) (C) Another set of electrophysiological recordings from a different animal in the awake and sedated state. […] Each line represents a single animal.
The afterdischarge threshold was first evaluated for each individual animal by gradually increasing stimulation intensity in a step-wise manner to drive electrographic seizures in the absence of behavioral seizures as assessed using the Racine scale. Starting with a 10 s train of 40 Hz stimulation with a pulse width of 7.5 ms at 1 mW, the power was increased 1 mW at a time with an interstimulus interval (ISI) of 1 min up to a maximum of 20 mW. If no afterdischarges were observed, the duration was increased by 2.5 s and power was reset to 1 mW.
Simultaneous LFP-ofMRI Data Acquisition to assess ventral hippocampal connectivity. To assess ventral hippocampal connectivity, CAMKIIa cells in ventral hippocampus were stimulated at 10 Hz using optogenetic stimulation and assessed using simultaneous LFP-fMRI. Data acquisition was performed using the 7T horizontal-bore system (Bruker BioSpec 70/30) at the Stanford Center for Innovation in In-Vivo Imaging (SCi3). […] A single bolus of Feraheme (15 mg/kg, i.v.) was used for cerebral blood volume (CBV) weighted imaging for the enhanced contrast to noise ratio (Mandeville et al., 1998) and microvascular sensitivity (Zhao et al., 2006) that this technique offers in comparison to BOLD fMRI. fMRI acquisition was carried out approximately 15 min post contrast agent injection using a 4-shot segmented spiral readout with the following acquisition parameters: TR=0.75 ms, TE=9 ms, flip angle=30, field-of-view=32×32 mm, matrix=70×70, slice thickness=0.6 mm, number of slices=30, number of repetitions=130, number of dummy scans=4. […]

Cc1cccc([C@H](C)c2cnc[nH]2)c1C [dexmedetomidine]
proportion of stimulations resulting in afterdischarges, awake vs sedated (40 Hz, 7.5 ms pulses, FIG. 10D): No differences | large amplitude spike onset, awake vs sedated (FIG. 10E): No differences | afterdischarge duration, sedated vs awake (FIG. 10F): did not result in shorter afterdischarges
